Experimental data published in publication PMC7767178 (International Journal of Molecular Sciences, 2020).
“And” between values parts separate entries of the source, which are not always exact repeats. Identical values can stand only once. Like-named read-outs stand apart in the source and are kept apart here.

How the values were obtained:
A. veronii X-1-06909 = assay: microbe, parasite or virus in culture; format: cell-based
Excerpt: (§1) All experiments were repeated three times.

[1] = tested on: Candida albicans CMCC98001; assay: microbe, parasite or virus in culture; format: cell-based
Excerpt: as §1

E. coli CVCC1515 = assay: microbe, parasite or virus in culture; format: cell-based
Excerpt: as §1

E. coli CVCC25922 = assay: microbe, parasite or virus in culture; format: cell-based
Excerpt: as §1

Escherichia coli CVCC195 = assay: microbe, parasite or virus in culture; format: cell-based
Excerpt: as §1

S. enteritidis CVCC3377 = assay: microbe, parasite or virus in culture; format: cell-based
Excerpt: as §1

S. pullorum CVCC1789 = assay: microbe, parasite or virus in culture; format: cell-based
Excerpt: as §1

S. pullorum CVCC1809 = assay: microbe, parasite or virus in culture; format: cell-based
Excerpt: as §1

S. pullorum CVCC533 = assay: microbe, parasite or virus in culture; format: cell-based
Excerpt: as §1

[2] = tested on: Staphylococcus aureus ATCC43300; assay: microbe, parasite or virus in culture; format: cell-based; settings: Staphylococcus aureus ATCC43300, broth dilution, 37 °C, 16–18 h, three experiments
Excerpt: as §1

E. coli CVCCO157 = assay: MIC, microtiter broth dilution; format: cell-based; settings: 37 °C, 16–18 h, three experiments
Excerpt: as §1

A. veronii ACCC61732 [3] = assay: Time-killing curves; format: cell-based; settings: 2× MIC; 1 × 10^5 CFU/mL, colony counting, 0–24 h
Description: Time-killing curves were performed as previously described. […] The sample of 100 μL was taken from each flask at 0, 0.5, 1, 2, 4, 6, 8, 10, 20, and 24 h, respectively, and serially diluted for colony counting. PBS and CIP were used as the negative and positive control, respectively.

A. veronii ACCC61732 [4] = assay: microbe, parasite or virus in culture; format: cell-based; settings: Aeromonas veronii, ACCC61732, read-out: MICa, MIC of the antibiotic used alone
Excerpt: The checkerboard microtiter assay was used to determine the combinations of peptides with different antibiotics (including quinolone, rifamycin, peptide antibiotics, aminoglycoside, tetracycline, and chloramphenicol). […] The fractional inhibitory concentration (FIC) was used to calculate the combination effects using the following formula: FIC index (FICI) = MIC(peptide in combination)/MIC(peptide alone) + MIC(antibiotic in combination)/MIC(antibiotic alone). FICI ≤ 0.5 means synergistic, 0.5 < FICI ≤ 1 means additive action, 1 < FICI ≤ 4 means indifference, and FICI > 4 means antagonism.

A. veronii ACCC61732 [5] = assay: Post-antibiotic effect (PAE); format: cell-based; settings: 2 h exposure, 1000-fold dilution, 37 °C, triplicate
Description: The samples were taken from flasks for counting each hour until bacterial cultures became turbid. The untreated bacteria severed as controls. The PAE was calculated using the following equation: PAE = T − C, where T is the time (h) required for the CFU in the test culture to increase by 10-fold from the count immediately after the drug removal and C is the corresponding time (h) for the control. The experiment was performed in triplicate.

A. veronii ACCC61732 [6] = assay: Resistance development, 30 serial passages; format: cell-based; settings: A. veronii ACCC61732, 30 passages (30 days)
Description: The development of bacterial resistance of peptides was performed by the MIC assays. […] GEN, CIP, and PMB were used as controls. […] The MIC values were measured as described above. The serial passaging was repeated for 30 days.

[7] = tested on: A. veronii ACCC61732 mature biofilms; assay: Eradication of mature biofilms, crystal violet; format: cell-based; settings: 16× MIC, 24 h on 24 h biofilm
Description: A. veronii ACCC61732 cells (1 × 10^8 CFU/mL) were cultured in TSB medium in the 96-well plates at 37 °C for 24 h.

[8] = tested on: A. veronii ACCC61732 in biofilm; format: cell-based; settings: 2 h
Description: The mid-log phase A. veronii ACCC61732 cells (1 × 10^8 CFU/mL) were inoculated into in the 96-well plates and cultured for 24 h at 37 °C. The plates were washed twice with PBS. […] PBS was used as the negative control. The plates were treated with ultrasound for 5 min and the viable bacteria were counted on the TSA plates.

MDR A. veronii ACCC61732 = assay: Mouse peritonitis model, survival; format: in vivo, ICR mice; settings: 1 μmol/kg i.p. 0.5 h after infection, seven days, six mice
Description: […]. The mice injected with only bacteria or saline served as the negative and blank control. The mouse survival was recorded daily for seven days.

A. veronii ACCC61732 [9] = assay: Mouse peritonitis model, bacterial translocation to organs; format: in vivo, ICR mice; settings: 24 h post-treatment, colony counting
Description: Sera and organs (livers, kidneys, spleens, and lungs) were collected from the mice at 24 h post-treatment. The organs were homogenized in sterile PBS to evaluate bacterial translocation by colony counting. The levels of cytokines (TNF-α, IL-1β, IL-6, and IL-10) in sera were detected using the ELISA kits.

A. veronii CL0901 = tested on: A. veronii CL0901
Description: (§2) Briefly, the tested strains including Gram-negative bacteria, Gram-positive bacteria, and fungi were cultured to the logarithmic growth phase, diluted to 10^5 CFU/mL, and added into 96-well plates (90 μL/well). Two-fold serial dilutions of peptides or antibiotics dissolved in PBS were added to each well (10 μL/well). […] All experiments were repeated three times.

S. hyicus NCTC10350 = tested on: S. hyicus NCTC10350
Description: as §2

O=C(O)c1cn(C2CC2)c2cc(N3CCNCC3)c(F)cc2c1=O [CIP, ciprofloxacin, reference compound]
MIC (A. veronii X-1-06909; Aeromonas veronii, X106909, A. veronii X-1-06909, broth dilution, 37 °C, 16–18 h, three experiments, read-out: MIC): 0.25 µg/mL and 0.75 µM | MIC ([1]; Candida albicans CMCC98001, broth dilution, 37 °C, 16–18 h, three experiments, read-out: MIC): > 386 µM | MIC ([1]; Candida albicans, CMCC98001): > 128 µg/mL | MIC (E. coli CVCC1515; Escherichia coli, CVCC1515): < 0.0625 µg/mL | MIC (E. coli CVCC1515; Escherichia coli, E. coli CVCC1515, broth dilution, 37 °C, 16–18 h, three experiments, read-out: MIC): < 0.19 µM | MIC (E. coli CVCC25922; Escherichia coli, CVCC25922): < 0.0625 µg/mL | MIC (E. coli CVCC25922; Escherichia coli, E. coli CVCC25922, broth dilution, 37 °C, 16–18 h, three experiments, read-out: MIC): < 0.19 µM | MIC (Escherichia coli CVCC195; Escherichia coli CVCC195, broth dilution, 37 °C, 16–18 h, three experiments, read-out: MIC): < 0.19 µM | MIC (Escherichia coli CVCC195; Escherichia coli, CVCC195): < 0.0625 µg/mL | MIC (S. enteritidis CVCC3377; Salmonella enterica, ENTERITIDIS): < 0.0625 µg/mL | MIC (S. enteritidis CVCC3377; Salmonella enterica, S. enteritidis CVCC3377, broth dilution, 37 °C, 16–18 h, three experiments, read-out: MIC): < 0.19 µM | MIC (S. pullorum CVCC1789; Salmonella enterica, PULLORUM): < 0.0625 µg/mL | MIC (S. pullorum CVCC1789; Salmonella enterica, S. pullorum CVCC1789, broth dilution, 37 °C, 16–18 h, three experiments, read-out: MIC): < 0.19 µM | MIC (S. pullorum CVCC1809; Salmonella enterica, PULLORUM): < 0.0625 µg/mL | MIC (S. pullorum CVCC1809; Salmonella enterica, S. pullorum CVCC1809, broth dilution, 37 °C, 16–18 h, three experiments, read-out: MIC): < 0.19 µM | MIC (S. pullorum CVCC533; Salmonella enterica, PULLORUM): < 0.0625 µg/mL | MIC (S. pullorum CVCC533; Salmonella enterica, S. pullorum CVCC533, broth dilution, 37 °C, 16–18 h, three experiments, read-out: MIC): < 0.19 µM | MIC ([2]; read-out: MIC): 0.25 µg/mL and 0.75 µM | MIC (E. coli CVCCO157; Escherichia coli, read-out: MIC): < 0.0625 µg/mL and < 0.19 µM | time to completely kill A. veronii ACCC61732 (A. veronii ACCC61732 [3]): started to regrow after 2 h | MIC (A. veronii ACCC61732 [4]): 0.125 µg/mL | PAE (A. veronii ACCC61732 [5]; 1× MIC): 0.6 ± 0.01 h | PAE (A. veronii ACCC61732 [5]; 2× MIC): 0.63 ± 0.1 h | PAE (A. veronii ACCC61732 [5]; 4× MIC): 0.67 h and 0.67 ± 0.02 h | increase of MIC after 30 serial passages (A. veronii ACCC61732 [6]): 15 fold | inhibition of mature biofilms [7]: 89.87% | bacteria in biofilm killed ([8]; 8× MIC, 37 °C, colony counting): 47.46% | bacteria in biofilm killed ([8]; 16× MIC, 37 °C, colony counting): 52.32% | survival rate of mice (MDR A. veronii ACCC61732): 83.33% | reduction of bacteria in kidneys (A. veronii ACCC61732 [9]; 1 μmol/kg): 60.14% | reduction of bacteria in livers (A. veronii ACCC61732 [9]; 1 μmol/kg): 54.55% | reduction of bacteria in lung (A. veronii ACCC61732 [9]; 1 μmol/kg): 62.27% | reduction of bacteria in spleens (A. veronii ACCC61732 [9]; 1 μmol/kg): 53.62%

CC(C)[C@H]1NC(=O)CNC(=O)[C@@H](CC(N)=O)NC(=O)[C@@H](CCCNC(=N)N)NC(=O)[C@@H](Cc2ccc(O)cc2)NC(=O)[C@@H](C(C)C)NC(=O)[C@H](NC(=O)[C@H](NC(=O)[C@@H](CC(N)=O)NC(=O)[C@@H](Cc2c[nH]c3ccccc23)NC(=O)[C@@H](C)NC(=O)[C@@H](Cc2ccccc2)NC(=O)CN)C(C)C)CSSC[C@H](C(=O)N[C@H](Cc2c[nH]cn2)C(=O)N[C@H](CCCNC(=N)N)C(=O)N[C@H](CCCNC(=N)N)C(=O)N[C@H](C)C(=O)N[C@H](CC(N)=O)C(N)=O)NC(=O)[C@@H](C(C)C)NC(=O)[C@@H](CCCNC(=N)N)NC1=O [DN6NH2]
MIC (A. veronii CL0901): 12.93 µM | MIC (A. veronii CL0901; A. veronii CL0901, broth dilution, 37 °C, 16–18 h, three experiments): 32 µg/mL | MIC (S. hyicus NCTC10350; NCTC10350): 3.23 µM | MIC (S. hyicus NCTC10350; S. hyicus NCTC10350, broth dilution, 37 °C, 16–18 h, three experiments): 8 µg/mL | MIC (A. veronii X-1-06909; A. veronii X-1-06909, broth dilution, 37 °C, 16–18 h, three experiments): 32 µg/mL | MIC (A. veronii X-1-06909; read-out: MIC): 12.93 µM | MIC ([1]; CMCC98001): 128 µg/mL | MIC (E. coli CVCC1515; E. coli CVCC1515, broth dilution, 37 °C, 16–18 h, three experiments): 4 µg/mL | MIC (E. coli CVCC1515; E. coli CVCC1515, broth dilution, 37 °C, 16–18 h, three experiments, read-out: MIC): 1.62 µM | MIC (E. coli CVCC25922; CVCC25922, read-out: MIC): 3.23 µM | MIC (E. coli CVCC25922; E. coli CVCC25922, broth dilution, 37 °C, 16–18 h, three experiments): 8 µg/mL | MIC (Escherichia coli CVCC195; CVCC195, read-out: MIC): 3.23 µM | MIC (Escherichia coli CVCC195; Escherichia coli CVCC195, broth dilution, 37 °C, 16–18 h, three experiments): 8 µg/mL | MIC (S. enteritidis CVCC3377; CVCC3377, read-out: MIC): 0.81 µM | MIC (S. enteritidis CVCC3377; S. enteritidis CVCC3377, broth dilution, 37 °C, 16–18 h, three experiments): 2 µg/mL | MIC (S. pullorum CVCC1789; CVCC1789, read-out: MIC): 6.46 µM | MIC (S. pullorum CVCC1789; S. pullorum CVCC1789, broth dilution, 37 °C, 16–18 h, three experiments): 16 µg/mL | MIC (S. pullorum CVCC1809; CVCC1809, read-out: MIC): 3.23 µM | MIC (S. pullorum CVCC1809; S. pullorum CVCC1809, broth dilution, 37 °C, 16–18 h, three experiments): 8 µg/mL | MIC (S. pullorum CVCC533; CVCC533, read-out: MIC): 6.46 µM | MIC (S. pullorum CVCC533; S. pullorum CVCC533, broth dilution, 37 °C, 16–18 h, three experiments): 16 µg/mL | MIC [2]: 4 µg/mL | MIC ([2]; read-out: MIC): 1.62 µM | MIC (E. coli CVCCO157): 4 µg/mL | MIC (E. coli CVCCO157; read-out: MIC): 1.62 µM | time to completely kill A. veronii ACCC61732 (A. veronii ACCC61732 [3]): ≤ 1 h | PAE (A. veronii ACCC61732 [5]; 1× MIC): 0.68 ± 0.01 h | PAE (A. veronii ACCC61732 [5]; 2× MIC): 1.13 ± 0.11 h | PAE (A. veronii ACCC61732 [5]; 4× MIC): 3.36 ± 0.19 h | increase of MIC after 30 serial passages (A. veronii ACCC61732 [6]): seven-fold | inhibition of mature biofilms [7]: 91.90% | bacteria in biofilm killed [8]; 8: 64.22% | bacteria in biofilm killed [8]; 16: 66.79% | reduction of bacteria in kidneys (A. veronii ACCC61732 [9]; 5 μmol/kg): 80.10% | reduction of bacteria in livers (A. veronii ACCC61732 [9]; 5 μmol/kg): 89.65% | reduction of bacteria in lungs (A. veronii ACCC61732 [9]; 5 μmol/kg): 81.61% | reduction of bacteria in spleens (A. veronii ACCC61732 [9]; 5 μmol/kg): 70.38%
